Here are results for eight compounds from publication PMC12299926 (Pharmaceuticals, 2025).

A short description of data set [1]: Plasma pharmacokinetics after per os enrofloxacin alone or with per os propolis (HPLC-FL, non-compartmental analysis). The settings on record: rabbit plasma, CPR = metabolite of ENR.
Method: (§1) This study was carried out under ideal conditions for rabbits, with ad libitum food and water. A total of 12 New Zealand White female rabbits, aged 4–6 months and weighing 2500–3000 g, were used in this study. The rabbits were randomly allocated into two groups, and each group consisted of six animals in the first phase of the study. This study was performed according to a two-phase longitudinal pharmacokinetic design. A 40-day elimination period was allowed between the treatments.
(§2) The collected blood samples were centrifuged at 13,000 rpm for 10 min, and plasma was removed and stored at −20 °C until HPLC analysis.
The mobile phase consisted of acetonitrile, and methanol (50:50) and potassium phosphate monobasic (20 mM, pH: 3.40) were delivered in an isocratic fashion at a flow rate of 1 mL/min. The fluorescence detector (FL, G1321B, Agilent, Germany) was at an excitation wavelength of 280 nm and an emission wavelength of 450 nm. […]
(§3) The plasma concentration–time curves obtained after each treatment in the individual animals were fitted with the WinNonlin software program (Version 5.2, Pharsight Corporation, Mountain View, CA, USA). The pharmacokinetic parameters for each animal were analyzed using non-compartmental model analysis. […]
The mean residence time (MRT) was calculated as follows: MRT0→∞ = AUMC0→∞/AUC0→∞ […]
The nature of data set [2]: Observation of systemic or local adverse effects during the study. The settings on record: rabbits; enrofloxacin per os 20 mg/kg or IM 10 mg/kg, propolis 100 mg resin/kg per os.
Method: The significance of the results was analyzed pharmacokinetically.
as §1
A short description of data set [3]: Plasma pharmacokinetics after intramuscular enrofloxacin alone or with per os propolis (HPLC-FL, non-compartmental analysis). The settings on record: after ENR 10 mg/kg IM alone.
Method: as §1, §2
The mobile phase consisted of acetonitrile, and methanol (50:50) and potassium phosphate monobasic (20 mM, pH: 3.40) were delivered in an isocratic fashion at a flow rate of 1 mL/min. The fluorescence detector (FL, G1321B, Agilent, Germany) was at an excitation wavelength of 280 nm and an emission wavelength of 450 nm. The Photo Diode Array Detector (DAD) was set at a wavelength of 279 nm for marbofloxacin (I.S.) analysis. The injection volume was 50 µL throughout the analysis, and a chromatographic analysis was completed in 10 min for plasma samples following injection. […]
as §3
The mean residence time (MRT) was calculated as follows: MRT0→∞ = AUMC0→∞/AUC0→∞
Terminal half-life (T1/2λz) was calculated as follows: T1/2λz= −ln(2)/λz where λz represents the first-order rate constant associated with the terminal (log-linear) portion of the curve.
The pharmacokinetic parameters are reported as mean (±SD). Harmonic means were calculated for T1/2λz and MRT0–∞. […] Non-normally distributed data were analyzed by a non-parametric Mann–Whitney U-Test; meanwhile, normally distributed data were compared by independent t-test using SPSS Statistics 23.0 (IBM Corp, Armonk, NY, USA). […]
For data set [4] the following is noted: 16 volunteers; subtherapeutic doses with propolis (375 mg/day); ref [21]; cited from earlier work.
For data set [5] the following is noted: propolis coadministered with duloxetine; ref [19]; cited from earlier work.

As for `O=C(O)c1cn(C2CC2)c2cc(N3CCNCC3)c(F)cc2c1=O` [CPR + PP], the “AUMC0-∞ (dose-normalized)” value in data set [1] (after ENR 20 mg/kg per os with propolis 100 mg resin/kg) is reported as 63.99±17.18 µg.h2/ml. Turning to `O=C(O)c1cn(C2CC2)c2cc(N3CCNCC3)c(F)cc2c1=O` [CPR, ciprofloxacin], the “AUMC0-∞ (dose-normalized)” value in data set [1] (after ENR 20 mg/kg per os alone) is on record as 27.72±13.72 µg.h2/ml. On to `CCN1CCN(c2cc3c(cc2F)c(=O)c(C(=O)O)cn3C2CC2)CC1` [ENR, enrofloxacin], for which the “systemic or local adverse effects” value in data set [2] is reported as “neither systemic nor local adverse effects were observed”. Moreover, the “AUMC0-∞ (dose-normalized)” value in data set [3] (dose-normalized, rabbit plasma, CPR = metabolite of ENR) was 59.21±18.78 µg.h2/ml. Also, in data set [3] (female, New Zealand White, rabbit, plasma, im, 10 mg/kg, Cmax, n = 6, CPR = metabolite of ENR), the peak concentration (Cmax) stood at 2980 ± 350 ng/mL. Moreover, the Tmax in data set [3] (female, New Zealand White, rabbit, plasma, im, 10 mg/kg, Tmax, n = 6, CPR = metabolite of ENR) is 28.2 ± 4.8 min.

As to `Cn1c(=O)c2c(ncn2C)n(C)c1=O` [caffeine], the “change of AUC with propolis” value in data set [4] is given as “decreased”.

Regarding `CNCC[C@H](Oc1cccc2ccccc12)c1cccs1` [duloxetine], in data set [5], the “increase in AUC with propolis coadministration” value is reported as 20–30% and the “increase in Cmax with propolis coadministration” value is 20–30%. Take `CCCCc1nc(Cl)c(CO)n1Cc1ccc(-c2ccccc2-c2nn[nH]n2)cc1` [losartan]: the “change of AUC with propolis” value in data set [4] is recorded as “decreased”.

With `Cc1ncc2n1-c1ccc(Cl)cc1C(c1ccccc1F)=NC2` [midazolam], the “change of AUC with propolis” value in data set [4] is “increased”. For the compound `COc1ccc2[nH]c([S+]([O-])Cc3ncc(C)c(OC)c3C)nc2c1` (stereo not drawn) [omeprazole], the “change of AUC with propolis” value in data set [4] was “increased”.

The Cmax is the peak of the concentration-time curve. As a reminder, the Tmax is the time from dosing to the highest level.
